Measurements published in patent publication US20240060989A1, “METHODS FOR MEASURING CRALBP ACTIVITY” (NOVARTIS AG, priority 2019, published 2024).

Target: T1, human CRALBP protein (Homo sapiens, UniProt P12271)
T1 construct: purchased GeneTex GTX109228-pro
Experiment: CRALBP binding assay, Biacore surface plasmon resonance (proteinA/G capture)
Details: for Ka: 1:1 binding model, Biacore T200
Description: Binding of 11-cis-retinol to human CRALBP protein was assessed for affinity determinations using Biacore. Kinetic rate constants was performed via surface plasmon resonance (SPR) using the Biacore T200 instrument (Cytiva, formerly GE Healthcare Lifesciences) as described below. The proteinA/G capture method was utilized in order to determine kinetics for 11-cis-retinol.
Recombinant proteinA/G (PIERCE, Cat #21186) was immobilized on the chip surface by using amino-coupling procedure according to the supplier's instruction (Cytiva, BR-1000-50). This immobilized proteinA/G captured commercial anti-CRALBP mouse IgG (Sigma, WH0006017M1, lot #11319-1H7), which then captured human CARLBP protein (GeneTex, GTX109228-pro, lot #42226) on chip surface. The 11-cis-retinol (Biosynth Carbosynth, FR163659) flowed over as analyte.
The 11-cis-retinol concentration started at […] and was serially diluted at one part to one part for five levels of concentration. Regeneration was performed at the end of each cycle using Glycine-HCl pH2.0 (Cytiva, BR-1003-55). The sample dilution step and Biacore experiment were performed either under ambient light or dark condition in which the Biacore sample compartment door was covered by aluminum foil.
Double reference subtraction was completed to generate final data. Kinetic rate constants was obtained by applying 1:1 binding model with Biacore T200 evaluation 3.0 software, wherein the Rmax values were fit locally. Binding was assess under dark and ambient light conditions.

T1 sequence (P12271 whole entry): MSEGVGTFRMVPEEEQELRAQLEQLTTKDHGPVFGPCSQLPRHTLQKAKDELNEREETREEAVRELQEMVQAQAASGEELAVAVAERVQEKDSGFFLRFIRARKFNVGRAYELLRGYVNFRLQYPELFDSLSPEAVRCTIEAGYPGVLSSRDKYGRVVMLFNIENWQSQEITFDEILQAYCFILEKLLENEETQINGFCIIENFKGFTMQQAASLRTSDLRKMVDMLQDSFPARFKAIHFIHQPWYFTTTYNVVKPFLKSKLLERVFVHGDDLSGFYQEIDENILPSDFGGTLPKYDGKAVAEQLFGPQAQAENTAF

- binding to human CRALBP (ambient light (FIG. 2A)): able to bind
- Ka (ambient light): 12.69 M⁻¹ s⁻¹
- binding to human CRALBP (dark (FIG. 2B)): able to bind
- Ka (dark): 21.03 M⁻¹ s⁻¹
SMILES: CC1=C(/C=C/C(C)=C/C=C\C(C)=C\CO)C(C)(C)CCC1 [11-cis-retinol]
